From patent US6503881B2 (priority 1996, dated 2003)
Like-named read-outs stand apart in the source and are kept apart here.

Key:
[1] = system: inherently resistant microorganisms; details: for MBI 26 MIC +Vancomycin: Teicoplanin table; for MIC in combination: Vancomycin +MBI 26
E. faecalis = type: cell-based; details: for MBI 26 MIC, +Teicoplanin: in combination with teicoplanin; for MIC in combination: Teicoplanin + MBI 26
E. faecium = type: cell-based; details: for MIC Alone: agent alone; for MBI 26 MIC, +Teicoplanin: in combination with teicoplanin

Q: “KWKSFIKKLTSAAKKVVTTAKPLISS [MBI 26]” was tested. Which “MBI 26 MIC +Vancomycin” value ([1]; E. casseliflavus 97056 VanC) did it give?
A: The value was 2 µg/mL.

Q: And the MIC in combination ([1]; E. casseliflavus 97056 VanC)?
A: The MIC in combination was 1 µg/mL.

Q: What about the “MIC Alone” value ([1]; E. casseliflavus 97056 VanC, pair Teicoplanin / MBI 26) of the same substance?
A: The value was 64 µg/mL.

Q: What about the “MIC Alone” value ([1]; E. casseliflavus 97056 VanC, pair Vancomycin / MBI 26) of the same substance?
A: Its value is 8 µg/mL.

Q: And the “MBI 26 MIC +Vancomycin” value ([1]; E. casseliflavus 97057 VanC)?
A: The value was 0.5 µg/mL.

Q: What about the MIC in combination ([1]; E. casseliflavus 97057 VanC) of the same substance?
A: Its MIC in combination is 0.5 µg/mL.

Q: What about the “MIC Alone” value ([1]; E. casseliflavus 97057 VanC, pair Teicoplanin / MBI 26) of the same substance?
A: The value was 64 µg/mL.

Q: What about the “MIC Alone” value ([1]; E. casseliflavus 97057 VanC, pair Vancomycin / MBI 26) of the same substance?
A: The value was 2 µg/mL.

Q: What about the “MBI 26 MIC +Vancomycin” value ([1]; E. casseliflavus 97058 VanC) of the same substance?
A: Its value is 0.5 µg/mL.

Q: And the MIC in combination ([1]; E. casseliflavus 97058 VanC)?
A: The MIC in combination was 0.25 µg/mL.

Q: What about the “MIC Alone” value ([1]; E. casseliflavus 97058 VanC, pair Teicoplanin / MBI 26) of the same substance?
A: Its value is 32 µg/mL.

Q: And the “MIC Alone” value ([1]; E. casseliflavus 97058 VanC, pair Vancomycin / MBI 26)?
A: The value was 4 µg/mL.

Q: What about the “MBI 26 MIC +Vancomycin” value ([1]; E. casseliflavus 97059 VanC) of the same substance?
A: Its value is 1 µg/mL.

Q: What about the MIC in combination ([1]; E. casseliflavus 97059 VanC) of the same substance?
A: The MIC in combination was 0.5 µg/mL.

Q: What about the “MIC Alone” value ([1]; E. casseliflavus 97059 VanC, pair Teicoplanin / MBI 26) of the same substance?
A: The value was 64 µg/mL.

Q: What about the “MIC Alone” value ([1]; E. casseliflavus 97059 VanC, pair Vancomycin / MBI 26) of the same substance?
A: The value was 32 µg/mL.

Q: What about the “MBI 26 MIC +Vancomycin” value ([1]; E. casseliflavus 97060 VanC) of the same substance?
A: The value was 1 µg/mL.

Q: What about the MIC in combination ([1]; E. casseliflavus 97060 VanC) of the same substance?
A: The MIC in combination was 0.25 µg/mL.

Q: And the “MIC Alone” value ([1]; E. casseliflavus 97060 VanC, pair Teicoplanin / MBI 26)?
A: The value was 64 µg/mL.

Q: And the “MIC Alone” value ([1]; E. casseliflavus 97060 VanC, pair Vancomycin / MBI 26)?
A: Its value is 0.5 µg/mL.

Q: And the “MBI 26 MIC +Vancomycin” value ([1]; E. gallinarum 97044 VanC)?
A: The value was 1 µg/mL.

Q: And the MIC in combination ([1]; E. gallinarum 97044 VanC)?
A: The MIC in combination was 0.5 µg/mL.

Q: What about the “MIC Alone” value ([1]; E. gallinarum 97044 VanC, pair Teicoplanin / MBI 26) of the same substance?
A: The value was 64 µg/mL.

Q: And the “MIC Alone” value ([1]; E. gallinarum 97044 VanC, pair Vancomycin / MBI 26)?
A: Its value is 8 µg/mL.

Q: What about the “MBI 26 MIC +Vancomycin” value ([1]; E. gallinarum 97046 VanC) of the same substance?
A: Its value is 1 µg/mL.

Q: What about the MIC in combination ([1]; E. gallinarum 97046 VanC) of the same substance?
A: Its MIC in combination is 4 µg/mL.

Q: What about the “MIC Alone” value ([1]; E. gallinarum 97046 VanC, pair Teicoplanin / MBI 26) of the same substance?
A: The value was 8 µg/mL.

Q: And the “MIC Alone” value ([1]; E. gallinarum 97046 VanC, pair Vancomycin / MBI 26)?
A: Its value is 2 µg/mL.

Q: And the “MBI 26 MIC +Vancomycin” value ([1]; E. gallinarum 97047 VanC)?
A: The value was 32 µg/mL.

Q: And the MIC in combination ([1]; E. gallinarum 97047 VanC)?
A: Its MIC in combination is 8 µg/mL.

Q: And the “MIC Alone” value ([1]; E. gallinarum 97047 VanC, pair Teicoplanin / MBI 26)?
A: Its value is 64 µg/mL.

Q: And the “MIC Alone” value ([1]; E. gallinarum 97047 VanC, pair Vancomycin / MBI 26)?
A: The value was 64 µg/mL.

Q: And the “MBI 26 MIC +Vancomycin” value ([1]; E. gallinarum 97048 VanC)?
A: Its value is 1 µg/mL.

Q: And the MIC in combination ([1]; E. gallinarum 97048 VanC)?
A: Its MIC in combination is 2 µg/mL.

Q: And the “MIC Alone” value ([1]; E. gallinarum 97048 VanC, pair Teicoplanin / MBI 26)?
A: Its value is 8 µg/mL.

Q: And the “MIC Alone” value ([1]; E. gallinarum 97048 VanC, pair Vancomycin / MBI 26)?
A: The value was 2 µg/mL.

Q: And the “MBI 26 MIC +Vancomycin” value ([1]; E. gallinarum 97049 VanC)?
A: Its value is 32 µg/mL.

Q: And the MIC in combination ([1]; E. gallinarum 97049 VanC)?
A: The MIC in combination was 16 µg/mL.

Q: And the “MIC Alone” value ([1]; E. gallinarum 97049 VanC, pair Teicoplanin / MBI 26)?
A: The value was 64 µg/mL.

Q: And the “MIC Alone” value ([1]; E. gallinarum 97049 VanC, pair Vancomycin / MBI 26)?
A: Its value is 64 µg/mL.

Q: And the “MIC Alone” value (E. faecalis; E. faecalis 97040 VanB, agent alone)?
A: The value was 64 µg/mL.

Q: And the “MBI 26 MIC, +Teicoplanin” value (E. faecalis; E. faecalis 97040 VanB)?
A: The value was 8 µg/mL.

Q: And the “MIC Alone” value (E. faecalis; E. faecalis 97041 VanB, agent alone)?
A: Its value is 64 µg/mL.

Q: And the “MBI 26 MIC, +Teicoplanin” value (E. faecalis; E. faecalis 97041 VanB)?
A: Its value is 8 µg/mL.

Q: And the “MIC Alone” value (E. faecalis; E. faecalis 97042 VanB, agent alone)?
A: The value was 64 µg/mL.

Q: And the “MBI 26 MIC, +Teicoplanin” value (E. faecalis; E. faecalis 97042 VanB)?
A: The value was 8 µg/mL.

Q: And the “MIC Alone” value (E. faecalis; E. faecalis 97043 VanB, agent alone)?
A: The value was 64 µg/mL.

Q: And the “MBI 26 MIC, +Teicoplanin” value (E. faecalis; E. faecalis 97043 VanB)?
A: Its value is 8 µg/mL.

Q: And the “MIC Alone” value (E. faecalis; E. faecalis 97050 VanA)?
A: The value was 64 µg/mL.

Q: And the MIC in combination (E. faecalis; E. faecalis 97050 VanA)?
A: The MIC in combination was 8 µg/mL.

Q: And the “MIC Alone” value (E. faecalis; E. faecalis 97051 VanA)?
A: Its value is 64 µg/mL.

Q: What about the MIC in combination (E. faecalis; E. faecalis 97051 VanA) of the same substance?
A: Its MIC in combination is 8 µg/mL.

Q: What about the “MIC Alone” value (E. faecalis; E. faecalis 97052 VanA) of the same substance?
A: Its value is 64 µg/mL.

Q: What about the MIC in combination (E. faecalis; E. faecalis 97052 VanA) of the same substance?
A: Its MIC in combination is 8 µg/mL.

Q: And the “MIC Alone” value (E. faecalis; E. faecalis 97053 VanA)?
A: The value was 64 µg/mL.

Q: What about the MIC in combination (E. faecalis; E. faecalis 97053 VanA) of the same substance?
A: The MIC in combination was 8 µg/mL.

Q: What about the “MIC Alone” value (E. faecalis; E. faecalis 97054 VanA) of the same substance?
A: The value was 64 µg/mL.

Q: And the MIC in combination (E. faecalis; E. faecalis 97054 VanA)?
A: The MIC in combination was 8 µg/mL.

Q: And the “MIC Alone” value (E. faecalis; E. faecalis 97055 VanA)?
A: The value was 64 µg/mL.

Q: What about the MIC in combination (E. faecalis; E. faecalis 97055 VanA) of the same substance?
A: The MIC in combination was 8 µg/mL.

Q: And the “MIC Alone” value (E. faecium; E. faecium 97001 VanB)?
A: The value was 64 µg/mL.

Q: What about the “MBI 26 MIC, +Teicoplanin” value (E. faecium; E. faecium 97001 VanB) of the same substance?
A: Its value is 4 µg/mL.

Q: What about the “MIC Alone” value (E. faecium; E. faecium 97002 VanB) of the same substance?
A: The value was 64 µg/mL.

Q: And the “MBI 26 MIC, +Teicoplanin” value (E. faecium; E. faecium 97002 VanB)?
A: Its value is 1 µg/mL.

Q: And the “MIC Alone” value (E. faecium; E. faecium 97003 VanB)?
A: The value was 64 µg/mL.

Q: What about the “MBI 26 MIC, +Teicoplanin” value (E. faecium; E. faecium 97003 VanB) of the same substance?
A: Its value is 1 µg/mL.

Q: What about the “MIC Alone” value (E. faecium; E. faecium 97005 VanB) of the same substance?
A: The value was 64 µg/mL.

Q: And the “MBI 26 MIC, +Teicoplanin” value (E. faecium; E. faecium 97005 VanB)?
A: Its value is 2 µg/mL.

Q: What about the “MIC Alone” value (E. faecium; E. faecium 97006 VanB) of the same substance?
A: Its value is 64 µg/mL.

Q: And the “MBI 26 MIC, +Teicoplanin” value (E. faecium; E. faecium 97006 VanB)?
A: The value was 4 µg/mL.

Q: What about the “MIC Alone” value (E. faecium; E. faecium 97007 VanB) of the same substance?
A: Its value is 64 µg/mL.

Q: And the “MBI 26 MIC, +Teicoplanin” value (E. faecium; E. faecium 97007 VanB)?
A: The value was 1 µg/mL.

Q: And the “MIC Alone” value (E. faecium; E. faecium 97008 VanB)?
A: Its value is 64 µg/mL.

Q: And the “MBI 26 MIC, +Teicoplanin” value (E. faecium; E. faecium 97008 VanB)?
A: The value was 4 µg/mL.

Q: And the “MIC Alone” value (E. faecium; E. faecium 97009 VanB)?
A: Its value is 32 µg/mL.
